In patent US20250197373A1, “SMALL MOLECULE COMPOUND OR SALT THEREOF OR SOLVATE OF THEM, GUANINE NUCLEOTIDE-BINDING PROTEIN G(Q) SUBUNIT ALPHA (GNAQ) INHIBITOR CONTAINING THE SAME AND METHOD FOR TREATING AND/OR PREVENTING CANCER” (INDUSTRIAL TECHNOLOGY RESEARCH INSTITUTE, priority 2023, published 2025) one finds IC50 and CC50 data, which are given here for 15 compounds.

The IC50 is the point on the concentration scale where inhibition reaches its midpoint. The CC50 is the concentration giving 50% cytotoxicity.

Common to all, as to assay type: cell-based
One data set relates to MCF-7 cells. The data set can be described thus: Inhibition of growth of mammary gland cancer cells MCF-7 (PrestoBlue). Conditions: Homo sapiens, MCF7, 168 h, 7 days culture, 2% fetal bovine serum, read-out: Inhibitory activity (evaluated by IC50). On the procedure: (§1) Human mammary gland cancer cells, MCF-7 cells and MCF-7 GNAQ (T96S) cells (MCF-7 cells expressing GNAQ (T96S) after GNAQ gene deletion) were cultured in MEM medium.
(§2) 1×10^3 of the cells mentioned above were seeded in a 96-well plate and cultured overnight (at least 16 hours) in a carbon dioxide incubator.
(§3) After overnight incubation, the supernatant was removed. Next, after 200 μL of cell culture medium (containing 2% fetal bovine serum) containing different concentrations of test compound was added to each well of the 96-well plate, the 96-well plate was placed in a 5% carbon dioxide incubator at 37° C. for 7 days further culture. After that, an additional 30 μL of diluted PrestoBlue™ Cell Viability Reagent (Catalog Number: A13261; Thermo Fisher Scientific) (4 μL stock solution and 26 μL culture medium) was added to each well of the 96-well plate and the reaction was continued for further about 1 hour.
(§4) Finally, the fluorescence value at the wavelength of 535/615 nm of each well was read with a plate enzyme immunoassay analyzer, and the inhibitory rate of the compound on mammary gland cancer cells were calculated using the following formula.
(§5) Moreover, the half maximal inhibitory concentration (IC50) of the compound on the growth of mammary gland cancer cells was calculated with the inhibitory rate of the compound on mammary gland cancer cells at each concentration through the online half maximal inhibitory concentration (IC50) calculation software, IC50 Calculator, provided by AAT Bioquest company on its website (https://www.aatbio.com/tools/ic50-calculator).
(§6) Finally, the inhibition of the compound on the growth of mammary gland cancer cells was evaluated by the calculated half maximal inhibitory concentration (IC50) of the compound on the growth of mammary gland cancer cells.
(§7) The inhibition of the compound on the growth of breast cancer cells was evaluated by the half maximal inhibitory concentration (IC50) of the compound (one of Compound 1 to Compound 15 prepared above) on the growth of mammary gland cancer cells through the human mammary gland cancer cell line MCF-7 and the human mammary gland cancer cell line MCF-7 GNAQ (T96S) expressing the mutated gene.

Data set [1] in a line: Half cytotoxic concentration on normal mammary gland epithelial cells MCF-10A-5E (PrestoBlue). The settings on record: human, MCF-10A-5E normal mammary gland epithelial cells, 5 days culture, 10% horse serum, read-out: Non-toxicity (evaluated by CC50). Here is the method: Human normal mammary epithelial cells, MCF-10A-5E cells, were cultured in DMEM/F12K (1:1) medium, wherein Insulin-Transferrin-Selenium (ITS-G) (41400045; Thermo Fisher Scientific) diluted 1,000-fold for use, EGF stock (1 mg/mL) (10605-HNAE; Sino Biological) diluted 2,000-fold for use and Hydrocortisone stock (1 mg/mL) (S1696; Selleck Chemicals) diluted 2,000-fold for use were additionally added to the medium.
5×10^3 of the cells mentioned above were seeded in a 96-well plate and cultured overnight (at least 16 hours) in a carbon dioxide incubator.
as §3, with “(containing 10% horse” for “(containing 2% fetal bovine”, “for 5” for “for 7”
Finally, the fluorescence value at the wavelength of 535/615 nm of each well was read with a plate enzyme immunoassay analyzer, and the fatality rate of the compound on normal mammary gland epithelial cells were calculated using the following formula.
Moreover, the half cytotoxic concentration (50% cytotoxic concentration, CC50) of the compound on normal mammary gland epithelial cells was calculated with the fatality rate of compound on normal mammary gland epithelial cells at each concentration through the online half maximal inhibitory concentration (IC50) calculation software, ICso Calculator, provided by AAT Bioquest company on its website (https://www.aatbio.com/tools/ic50-calculator).
Finally, toxicity of the compound on normal mammary gland epithelial cells was evaluated by the calculated half cytotoxic concentration (CC50) of the compound on normal mammary gland epithelial cells.
In addition, the toxicity of the compound on normal mammary gland epithelial cells was evaluated by the half cytotoxic concentration (CC50) of the compound (one of Compound 1 to Compound 15 prepared above) on normal mammary gland epithelial cells through the human normal mammary gland epithelial cell line MCF-T0A-5E.

The subject of the next data set is MCF-7 GNAQ (T96S) cells. Briefly: Inhibition of growth of mammary gland cancer cells MCF-7 GNAQ (T96S) (PrestoBlue). The settings on record: Homo sapiens, MCF7, 168 h, 7 days culture, 2% fetal bovine serum, read-out: Inhibitory activity (evaluated by IC50). Here is the method:
as §1, §2, §3, §4, §5, §6, §7

In the case of `O=C(Nc1cccc(-c2cc(-c3cccc(C(F)(F)F)c3)ncn2)c1)Nc1cc(Cl)nc(Cl)c1` [Compound 14], the IC50 in the data set with MCF-7 cells and in the data set on MCF-7 GNAQ (T96S) cells was < 310 nM each time. In data set [1], the CC50 at 5 days fell in the range of 10000 to 20000 nM.
Regarding `O=C(Nc1ccc(-c2nc(-c3ccccc3)ncc2Cl)cc1)Nc1cc(Cl)nc(Cl)c1` [Compound 15], the IC50 in the data set on MCF-7 cells and with MCF-7 GNAQ (T96S) cells was < 310 nM each time. Further, in data set [1], the CC50 at 5 days fell in the range of 10000 to 20000 nM.
In the case of `O=C(Nc1ccc(-c2cccc(-c3ccncc3)n2)cc1)Nc1ccc(Cl)c(C(F)(F)F)c1` [Compound 12], the IC50 in the data set on MCF-7 cells and in the data set on MCF-7 GNAQ (T96S) cells was 310 to 2500 nM in each case. Also, in data set [1], the CC50 at 5 days is 10000 to 20000 nM.
With `O=C(Nc1ccc(-c2cccc(-c3cccc(C(F)(F)F)c3)n2)cc1)Nc1cc(Cl)nc(Cl)c1` [Compound 9], the IC50 in the data set on MCF-7 cells and in the data set on MCF-7 GNAQ (T96S) cells was 310 to 2500 nM each time. Besides, in data set [1], the CC50 at 5 days lay within 10000 to 20000 nM.
With `O=C(Nc1ccc(-c2ccnc(-c3ccncc3)n2)cc1)Nc1ccc(Cl)c(C(F)(F)F)c1` [Compound 6], the IC50 in the data set with MCF-7 cells and in the data set on MCF-7 GNAQ (T96S) cells was 310 to 2500 nM each time. Besides, the CC50 at 5 days in data set [1] lay within 10000 to 20000 nM.
As to `N#Cc1cccc(-c2cccc(-c3ccc(NC(=S)Nc4cc(Cl)nc(Cl)c4)cc3)n2)c1` [Compound 11], the half-inhibitory concentration (IC50) in the data set on MCF-7 cells and in the data set with MCF-7 GNAQ (T96S) cells was 310 to 2500 nM throughout. Also, the CC50 at 5 days in data set [1] is > 20000 nM.
Consider `O=C(Nc1cccc(-c2ccnc(-c3cccc(C(F)(F)F)c3)n2)c1)Nc1cc(Cl)nc(Cl)c1` [Compound 2], for which the IC50 in the data set on MCF-7 cells and with MCF-7 GNAQ (T96S) cells was 310 to 2500 nM in each case. The CC50 at 5 days in data set [1] was in the range of 10000 to 20000 nM.
For the compound `N#Cc1cccc(-c2nccc(-c3cccc(NC(=O)Nc4cc(Cl)nc(Cl)c4)c3)n2)c1` [Compound 3], the IC50 with MCF-7 cells and with MCF-7 GNAQ (T96S) cells was 310 to 2500 nM each time. Further, the CC50 at 5 days in data set [1] is 10000 to 20000 nM.
In the case of `O=C(Nc1ccc(-c2ccnc(-c3cccc(C(F)(F)F)c3)n2)cc1)Nc1ccc(Cl)c(C(F)(F)F)c1` [Compound 8], the IC50 with MCF-7 cells and with MCF-7 GNAQ (T96S) cells was 310 to 2500 nM in each case. Further, the CC50 at 5 days in data set [1] was in the range of 10000 to 20000 nM.
With `O=C(Nc1ccc(-c2ccnc(-c3cccc(C(F)(F)F)c3)n2)cc1)Nc1cc(Cl)nc(Cl)c1` [Compound 7], the IC50 in the data set on MCF-7 cells and in the data set with MCF-7 GNAQ (T96S) cells was 310 to 2500 nM each time. For the same compound, in data set [1], the CC50 at 5 days was in the range of 10000 to 20000 nM.
On to `FC(F)(F)c1cccc(-c2cccc(-c3ccc(NC(=S)Nc4cc(Cl)nc(Cl)c4)cc3)n2)c1` [Compound 10], for which the IC50 in the data set with MCF-7 cells and in the data set on MCF-7 GNAQ (T96S) cells was 310 to 2500 nM in each case. In addition, the CC50 at 5 days in data set [1] was > 20000 nM.
On to `O=C(Nc1cccc(-c2cccc(-c3ccncc3)n2)c1)Nc1cc(Cl)nc(Cl)c1` [Compound 13], for which the IC50 in the data set on MCF-7 cells and with MCF-7 GNAQ (T96S) cells was 310 to 2500 nM throughout. In data set [1], the CC50 at 5 days is > 20000 nM.
`O=C(Nc1cccc(-c2ccnc(-c3cccc(C(F)(F)F)c3)n2)c1)c1cc(Cl)nc(Cl)c1` [Compound 5]: the IC50 with MCF-7 cells and in the data set with MCF-7 GNAQ (T96S) cells was 310 to 2500 nM each time. Further, the CC50 at 5 days in data set [1] is > 20000 nM.
Take `O=C(Nc1cccc(-c2ccnc(-c3ccc(F)c(F)c3)n2)c1)Nc1cc(Cl)nc(Cl)c1` [Compound 4]: the IC50 in the data set on MCF-7 cells and in the data set on MCF-7 GNAQ (T96S) cells was 310 to 2500 nM in each case. In addition, the CC50 at 5 days in data set [1] was 5000 to 10000 nM.
For `O=C(Nc1cccc(-c2ccnc(-c3ccnc(Cl)c3)n2)c1)Nc1cc(Cl)nc(Cl)c1` [Compound 1], the IC50 in the data set with MCF-7 cells and with MCF-7 GNAQ (T96S) cells was 310 to 2500 nM each time. In addition, the CC50 at 5 days in data set [1] is > 20000 nM.
